Measurements published in PubChem BioAssay (NCI).
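Grown in 96-well plates, cells were treated for 48 hours with each compound at five concentrations. Insufficient inhibition: endpoint recorded as highest concentration tested. GI50 is the concentration that inhibits growth by half. TGI: concentration producing complete growth inhibition.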

What was measured:
Assay in all cases: growth of human tumour cells (NCI), 48 h
T-47D breast = tested on: T-47D breast
A549 NSCLC = tested on: A549 NSCLC
SK-OV-3 ovarian = tested on: SK-OV-3 ovarian
PC-3 prostate = tested on: PC-3 prostate
LOX IMVI melanoma = tested on: LOX IMVI melanoma
CAKI-1 renal = tested on: CAKI-1 renal
SNB-19 CNS = tested on: SNB-19 CNS
NCI/ADR-RES ovarian = tested on: NCI/ADR-RES ovarian
SR leukemia = tested on: SR leukemia
DU-145 prostate = tested on: DU-145 prostate
SF-295 CNS = tested on: SF-295 CNS
BT-549 breast = tested on: BT-549 breast
MDA-MB-435 = tested on: MDA-MB-435
A498 renal = tested on: A498 renal
KM12 colon = tested on: KM12 colon
HOP-92 NSCLC = tested on: HOP-92 NSCLC
OVCAR-8 ovarian = tested on: OVCAR-8 ovarian
M14 melanoma = tested on: M14 melanoma
U251 CNS = tested on: U251 CNS
HCT-116 colon = tested on: HCT-116 colon
COLO 205 colon = tested on: COLO 205 colon
RPMI-8226 leukemia = tested on: RPMI-8226 leukemia
NCI-H522 lung = tested on: NCI-H522 lung
NCI-H226 lung = tested on: NCI-H226 lung
MCF7 breast = tested on: MCF7 breast
NCI-H460 lung = tested on: NCI-H460 lung
MOLT-4 leukemia = tested on: MOLT-4 leukemia
UACC-62 melanoma = tested on: UACC-62 melanoma
IGROV1 ovarian = tested on: IGROV1 ovarian
UO-31 renal = tested on: UO-31 renal
HCT-15 colon = tested on: HCT-15 colon
SN12C renal = tested on: SN12C renal
HT29 colon = tested on: HT29 colon
OVCAR-3 ovarian = tested on: OVCAR-3 ovarian
K-562 leukemia = tested on: K-562 leukemia
MALME-3M melanoma = tested on: MALME-3M melanoma
786-0 renal = tested on: 786-0 renal
OVCAR-5 ovarian = tested on: OVCAR-5 ovarian
CCRF-CEM leukemia = tested on: CCRF-CEM leukemia
HS 578T breast = tested on: HS 578T breast
UACC-257 melanoma = tested on: UACC-257 melanoma
SK-MEL-28 melanoma = tested on: SK-MEL-28 melanoma
SK-MEL-5 melanoma = tested on: SK-MEL-5 melanoma
SF-539 CNS = tested on: SF-539 CNS
SF-268 CNS = tested on: SF-268 CNS
SK-MEL-2 melanoma = tested on: SK-MEL-2 melanoma
SNB-75 CNS = tested on: SNB-75 CNS
NCI-H23 lung = tested on: NCI-H23 lung
SW-620 colon = tested on: SW-620 colon
HCC-2998 colon = tested on: HCC-2998 colon
ACHN renal = tested on: ACHN renal
HOP-62 NSCLC = tested on: HOP-62 NSCLC
HL-60(TB) leukemia = tested on: HL-60(TB) leukemia
OVCAR-4 ovarian = tested on: OVCAR-4 ovarian
MDA-MB-231 breast = tested on: MDA-MB-231 breast
RXF 393 renal = tested on: RXF 393 renal

SMILES: O=C1Nc2ccccc2/C1=C/C(=N/c1nnc(-c2ccccc2)s1)c1ccccc1
- GI50 (T-47D breast): 2450 nM
- TGI (T-47D breast): 10.1 µM
- GI50 (A549 NSCLC): 8.62 µM
- TGI (A549 NSCLC): 23.6 µM
- GI50 (SK-OV-3 ovarian): 6.62 µM
- TGI (SK-OV-3 ovarian): 19.1 µM
- GI50 (PC-3 prostate): 2000 nM
- TGI (PC-3 prostate): 5.52 µM
- GI50 (LOX IMVI melanoma): 1610 nM
- TGI (LOX IMVI melanoma): 3.21 µM
- GI50 (CAKI-1 renal): 2580 nM
- TGI (CAKI-1 renal): 10.3 µM
- GI50 (SNB-19 CNS): 12.3 µM
- TGI (SNB-19 CNS): 25 µM
- GI50 (NCI/ADR-RES ovarian): 3.1 µM
- TGI (NCI/ADR-RES ovarian): 10.3 µM
- GI50 (SR leukemia): 957 nM
- TGI (SR leukemia): 6.76 µM
- GI50 (DU-145 prostate): 2700 nM
- TGI (DU-145 prostate): 7.77 µM
- GI50 (SF-295 CNS): 17.1 µM
- TGI (SF-295 CNS): 32.7 µM
- GI50 (BT-549 breast): 1910 nM
- TGI (BT-549 breast): 3.96 µM
- GI50 (MDA-MB-435): 2960 nM
- TGI (MDA-MB-435): 9.32 µM
- GI50 (A498 renal): 6.78 µM
- TGI (A498 renal): 21 µM
- GI50 (KM12 colon): 5.5 µM
- TGI (KM12 colon): 17.9 µM
- GI50 (HOP-92 NSCLC): 987 nM
- TGI (HOP-92 NSCLC): 2930 nM
- GI50 (OVCAR-8 ovarian): 2770 nM
- TGI (OVCAR-8 ovarian): 9.35 µM
- GI50 (M14 melanoma): 3.87 µM
- TGI (M14 melanoma): 14.3 µM
- GI50 (U251 CNS): 4.91 µM
- TGI (U251 CNS): 17.7 µM
- GI50 (HCT-116 colon): 1340 nM
- TGI (HCT-116 colon): 2920 nM
- GI50 (COLO 205 colon): 1680 nM
- TGI (COLO 205 colon): 3.22 µM
- GI50 (RPMI-8226 leukemia): 2140 nM
- TGI (RPMI-8226 leukemia): 5.21 µM
- GI50 (NCI-H522 lung): 449 nM
- TGI (NCI-H522 lung): 1060 nM
- GI50 (NCI-H226 lung): 2500 nM
- TGI (NCI-H226 lung): 8.28 µM
- GI50 (MCF7 breast): 2280 nM
- TGI (MCF7 breast): 11.3 µM
- GI50 (NCI-H460 lung): 7.04 µM
- TGI (NCI-H460 lung): 21.9 µM
- GI50 (MOLT-4 leukemia): 2230 nM
- TGI (MOLT-4 leukemia): 6.54 µM
- GI50 (UACC-62 melanoma): 1720 nM
- TGI (UACC-62 melanoma): 3.74 µM
- GI50 (IGROV1 ovarian): 2130 nM
- TGI (IGROV1 ovarian): 5.94 µM
- GI50 (UO-31 renal): 1450 nM
- TGI (UO-31 renal): 3.31 µM
- GI50 (HCT-15 colon): 1630 nM
- TGI (HCT-15 colon): 4.01 µM
- GI50 (SN12C renal): 2070 nM
- TGI (SN12C renal): 5.69 µM
- GI50 (HT29 colon): 2100 nM
- TGI (HT29 colon): 5.37 µM
- GI50 (OVCAR-3 ovarian): 1380 nM
- TGI (OVCAR-3 ovarian): 2800 nM
- GI50 (K-562 leukemia): 1690 nM
- TGI (K-562 leukemia): 11 µM
- GI50 (MALME-3M melanoma): 2170 nM
- TGI (MALME-3M melanoma): 6.67 µM
- GI50 (786-0 renal): 1790 nM
- TGI (786-0 renal): 3.55 µM
- GI50 (OVCAR-5 ovarian): 2090 nM
- TGI (OVCAR-5 ovarian): 6.63 µM
- GI50 (CCRF-CEM leukemia): 1470 nM
- TGI (CCRF-CEM leukemia): 4.72 µM
- GI50 (HS 578T breast): 2710 nM
- TGI (HS 578T breast): 11.8 µM
- GI50 (UACC-257 melanoma): 3.81 µM
- TGI (UACC-257 melanoma): 10.6 µM
- GI50 (SK-MEL-28 melanoma): 2680 nM
- TGI (SK-MEL-28 melanoma): 6.93 µM
- GI50 (SK-MEL-5 melanoma): 6.57 µM
- TGI (SK-MEL-5 melanoma): 17.9 µM
- GI50 (SF-539 CNS): 1990 nM
- TGI (SF-539 CNS): 4.64 µM
- GI50 (SF-268 CNS): 4.3 µM
- TGI (SF-268 CNS): 16.1 µM
- GI50 (SK-MEL-2 melanoma): 2550 nM
- TGI (SK-MEL-2 melanoma): 7.07 µM
- GI50 (SNB-75 CNS): 3.7 µM
- TGI (SNB-75 CNS): 16.9 µM
- GI50 (NCI-H23 lung): 2880 nM
- TGI (NCI-H23 lung): 11 µM
- GI50 (SW-620 colon): 1200 nM
- TGI (SW-620 colon): 2740 nM
- GI50 (HCC-2998 colon): 8.58 µM
- TGI (HCC-2998 colon): 21.5 µM
- GI50 (ACHN renal): 1560 nM
- TGI (ACHN renal): 3 µM
- GI50 (HOP-62 NSCLC): 6.05 µM
- TGI (HOP-62 NSCLC): 18 µM
- GI50 (HL-60(TB) leukemia): 1820 nM
- TGI (HL-60(TB) leukemia): 5.33 µM
- GI50 (OVCAR-4 ovarian): 2630 nM
- TGI (OVCAR-4 ovarian): 12.2 µM
- GI50 (MDA-MB-231 breast): 1920 nM
- TGI (MDA-MB-231 breast): 4.95 µM
- GI50 (RXF 393 renal): 1510 nM
- TGI (RXF 393 renal): 3.1 µM
